Assay results taken from patent publication US6656916B1, “Glucocorticoid enhancement of gene expression” (Research Development Foundation, priority 1995, dated 2003).
“Also recorded” adds a separate entry of the source. Like-named read-outs stand apart in the source and are kept apart here.

Assays:
A549 cells [1] = assay: β-galactosidase (CPRG microtiter) activity in A549 cells transfected with reporter plasmid-cationic lipid; type: cell-based, human; conditions: for β-gal expression over untreated cells: 10^−6 M beclomethasone 4 hours; for βgal activity versus medium treated, transfected cells: then beclomethasone 4 hours prior to transfection
primary rat lung cells = assay: β-gal activity in primary rat lung cells transfected with pCMVβgal-DMRIE/DOPE; type: cell-based
A549 cells [2] = assay: X-gal staining, count of stained transfected A549 cells; type: cell-based, human; conditions: BEC 10^−6 M 4 hours, DNA-DMRIE/DOPE, 48 hours, stained cells in 1×1 cm^2 area
Experimental: All transfections were performed in OPTIMEM (GIBCO-Life Technologies). One μg of pCMVβ gal was combined with 4 μg of DMRIE/DOPE or 3 μg of DOSPA/DOPE in 1 ml of OPTIMEM and incubated for 15 minutes at room temperature. Cell monolayers were washed twice in serum-free medium then overlaid with 1 ml of transfection mixture and incubated for 2.5 hours at 37° C. in a humidified, 5% CO2. DNA-liposome overlay was replaced with DMEM plus 10% FBS and cells were incubated for 48 hours. Cell lysates were harvested and assayed for total protein according to the manufacturer's instructions (BCA assay, Pierce Chemical, Rockfield, Ill.) and β -galactosidase activity was determined using a Chlorophenored-β-D-galactopyranoside colorimetric microtiter assay as described (CPRG) assay (Boerhinger-Mannheim, Germany). […]
For stained cells, duplicate cell cultures of A549 cells were treated for 4 hours with beclomethasone dipropionate or medium only, then transfected with pCMVβgal using DMRIE/DOPE. At 48 hours, one set of cultures was lysed and βgal activity determined while the other set was fixed with neutral buffered formalin and stained with β-gal (duplicate wells for each treatment). Stained cells were counted in a 1×1 cm^2 area.

A549 cells [3] = assay: 3H-thymidine-labeled pCMVβgal plasmid-lipid uptake; type: cell-based, human; conditions: several concentrations, 4 hours pretreatment, uptake at 2 hours
Experimental: A549 cells were pretreated with medium or beclomethasone at the dose specified for 4 hours, then transfected with ^3H-thymidine-labeled pCMVβgal. Two hours post-transfection, cells were washed, lightly trypsinized and pelleted by centrifugation. Pellets were then lysed, resuspended, and liquid scintillation cocktail added. ^3H-thymidine-labeled pCMVβgal uptake (CPM) per sample was determined. Results represent the average and standard deviation from 4 experiments and each experimental point was performed in duplicate. Fold-change=CPM beclomethasone-pretreated/CPM medium pretreated.
^3H-thymidine-labeled pCMVβgal plasmid was prepared by adding 1 mCi of ^3H-TdR (^3H-TdR, 74GBq/mmol, Amersham) to a 25 ml overnight culture of pCMVβgal-transformed DH5α strain of Escherichia coli. Labeled plasmid was isolated using Qiagen tip columns (100 μg size, Chatsworth, Calif.) per manufacturer's instructions. Saturable binding of the labeled DNA was determined as follows. Serial dilutions, from 1 μg-0.125 μg of ^3-H-TdR-labeled DNA was added to A549 cells and incubated for either 2, 6 or 24 hours. […] Pellets were lysed in 100 μl of lysis buffer (0.1 M TRIS and 0.5% Triton X-100), liquid scintillation cocktail added (BCS, Amersham) and ^3H-plasmid label quantitated by liquid scintillation. […] Uptake was determined as described above.

A549 cells [4] = assay: β-gal mRNA levels by RNA-specific PCR (RS-PCR); type: cell-based, human
Experimental: A549 cells were treated with 10^-6 M beclomethasone or medium for 4 hours. Cells were transfected with 1 μg/ml pCMVβgal plus 4 μg/ml DMRIE/DOPE. At times specified (hours) after transfection, total RNA was harvested, converted to cDNA and specific βgal messages amplified by RS-PCR as described below. RS-PCR samples were resolved on a 1% TAE agarose gel and transferred to nylon filter. Filter was hybridized to a ^32P-labeled βgal probe. Filter was analyzed by betascanner and bands of the appropriate size counted. Fold-change=βgal CPM in beclomethasone treated cells/βgal. CPM in medium-treated cells. […] Briefly, cells were pre-treated with beclomethasone at 10^-6 M and transfected as described above. After the incubation was complete, cells were lysed using acidified guanidinium isothiocyante (Fluka Chemical), containing 0.75 M sodium citrate and 1% sarkosyl. RNA was harvested using the RNAeasy system (Qiagen, Chatsworth, Calif.). Total RNA quantity was determined by A260 and, 0.5 μg of the RNA was run on a gel to determine RNA integrity. Using 0.3 μg of total RNA, cDNAs were prepared using MMLV reverse transcriptase (GIBCO, Life Technologies), substituting primer […] […] One μl of cDNA was spotted to duplicate nitrocellulose filters and counted by LSC. […] Blots were evaluated on a Betagen betascanner and CPM for bands of the correct size were determined.

[5] = various doses, 4 hours prior to transfection with pCMVβ gal or pSVβ using DMRIE/DOPE

CC(=O)[C@H]1CC[C@H]2[C@@H]3CCC4=CC(=O)CC[C@]4(C)[C@H]3CC[C@]12C [progesterone]
Enhancement of β-gal / reporter gene expression by other steroids (A549 cells [1]; [5]): Enhancement of β-gal was only seen in the beclomethasone treated cells; also recorded: did not enhance reporter gene expression

CC1(C)O[C@@H]2C[C@H]3[C@@H]4C[C@H](F)C5=CC(=O)C=C[C@]5(C)[C@H]4[C@@H](O)C[C@]3(C)[C@]2(C(=O)CO)O1 [FLUN, flunisolide]
Degree of β-gal enhancement compared with the other glucocorticoids (A549 cells [1]; 10^−6 M, 4 hours prior to transfection): less of an enhancing effect | Enhancement of β-gal activity by other topical glucocorticoids (FIG. 2B) (A549 cells [1]; 10^−6 M, 4 hours prior to transfection, pCMVβgal-DMRIE/DOPE): enhanced β-gal activity

C[C@]12CC[C@@H]3c4ccc(O)cc4CC[C@H]3[C@@H]1CC[C@@H]2O [estrogen, estradiol]
Enhancement of β-gal / reporter gene expression by other steroids (A549 cells [1]): Enhancement of β-gal was only seen in the beclomethasone treated cells; also recorded: did not enhance reporter gene expression

Interleukin-1β [IL-1β]
β-gal activity relative to medium treated cells (A549 cells [1]; 100 U/ml IL-1β or 0.5 μg/ml lipopolysacchride for 4 hours before transfection with pCMVβgal-DMRIE/DOPE): decreased β-gal activity significantly; also recorded: suppressed the degree of β-gal expression

CCC(=O)OCC(=O)[C@@]1(OC(=O)CC)[C@@H](C)C[C@H]2[C@@H]3CCC4=CC(=O)C=C[C@]4(C)[C@@]3(Cl)[C@@H](O)C[C@@]21C [beclomethasone, beclomethasone dipropionate]
Enhancement of β-gal activity (A549 cells [1]; 5×10^−7 M to 10^−6 M, 4 hours prior to transfection, pCMVβgal-DMRIE/DOPE): 2-4 fold | Minimum beclomethasone exposure required to see enhanced β-gal transfection (A549 cells [1]; 10^−6 M): 3 to 4 h | β-gal expression over untreated cells (A549 cells [1]; then IL-1β 4 hours prior to transfection): 2 fold | β-gal expression over untreated cells (A549 cells [1]; then lipopolysacchride 4 hours prior to transfection): 2 fold | Beclomethasone-mediated enhancement of β-gal activity in presence of CHX (A549 cells [1]; 10^−6 M beclomethasone + CHX 10 μg/ml, 4 hours): even greater in the presence of CHX | Enhancement of β-gal activity (FIG. 3) (A549 cells [1]; 10^−6 M beclomethasone only, 4 hours): 2.5 fold | Pre-treatment time at which enhanced β-gal activity was maximized (A549 cells [1]; 10^−6 M, remained maximal for the 24 hours monitored): ≤ 8 h | Enhancement of β-gal activity (A549 cells [1]; 10^−7 M, 4 hours prior to transfection, pCMVβgal-DMRIE/DOPE): only slight enhancement | FOLD-CHANGE, βGAL ACTIVITY (A549 cells [1]; BEC 10^−6 M 4 hours, DNA-DMRIE/DOPE, 48 hours): 3 | βgal activity versus medium treated, transfected cells (A549 cells [1]; IL-1β 4 hours first): augmented βgal activity above what was seen in medium treated, transfected cells | Concentration producing maximal enhanced reporter gene activity (A549 cells [1]; alternate lipid, promoter or reporter): 5×10^−7 to 10^−6 M | βgal activity versus medium treated, transfected cells (A549 cells [1]; lipopolysacchride 4 hours first): augmented βgal activity above what was seen in medium treated, transfected cells | β-gal expression with alternate cationic lipid (A549 cells [1]; pCMVβgal and DOSPA/DOPE (FIG. 5A)): also enhanced | β-gal enhancement with SV40 promoter vector (A549 cells [1]; pSVβ-DMRIE/DOPE (FIG. 5B)): enhancement was observed | Effectiveness of 10^−6 M compared with 10^−7 M (primary rat lung cells; 10^−6 M): less effective than was 10^−7 M | βgal activity, beclomethasone pretreatment followed by lipopolysacchride stimulation (primary rat lung cells; 4 hours beclomethasone + 4 hours lipopolysacchride): restored βgal activity to that of the medium pre-treated cells | Concentration of optimum enhancement in βgal activity (primary rat lung cells; 4 hours pretreatment): 10^−7 M | Enhancement of β-gal activity (primary rat lung cells; 4 hours pretreatment, pCMVβgal-DMRIE/DOPE, composite of several rat cell preparations): 2 fold | FOLD-CHANGE, X-GAL STAINING (A549 cells [2]): 1.5 ± 0.7 | Uptake of radiolabeled plasmid (A549 cells [3]): does not appear to enhance uptake | Steady-state β-gal mRNA levels versus medium-treated cells (A549 cells [4]; T=3 and T=24 hours, 10^−6 M): definite increase in steady-state m RNA levels | β-gal mRNA induction (A549 cells [4]; T=2 hours after transfection, 10^−6 M 4 hours pretreatment): 18 fold

CC(C)CCC[C@@H](C)[C@H]1CC[C@H]2[C@@H]3CC=C4C[C@@H](O)CC[C@]4(C)[C@H]3CC[C@]12C [cholesterol]
Enhancement of β-gal / reporter gene expression by other steroids (A549 cells [1]; [5]): Enhancement of β-gal was only seen in the beclomethasone treated cells; also recorded: did not enhance reporter gene expression

C[C@@H]1C[C@@H]([C@H](O)CC2CC(=O)NC(=O)C2)C(=O)[C@@H](C)C1 [CHX, cycloheximide]
β-gal activity in control cells with protein synthesis inhibitor (A549 cells [1]; CHX 10 μg/ml, 30 minutes + 4 hours): moderately suppressed the β-gal activity

cyclosporine A
Reversal/enhancement of reporter gene expression by another immunosuppressant (A549 cells [1]; cells pre-treated with cyclosporine A, cell type not stated): this effect was not seen; also recorded: the effect was not seen
